Assay results from patent US20250332178A1, “METHODS OF TREATING MYCOBACTERIAL INFECTIONS USING TETRACYCLINE COMPOUNDS” (priority 2018, published 2025).
Values after ≈ are worked out from the molar mass of the structure shown. Read-outs that look alike come from different tables or passages of the source.

What was measured:
Assay in all cases: MIC (CLSI broth dilution), RGM isolates
Assay type in all cases: cell-based
M. abscessus complex = details: Mycobacteroides abscessus, initial reading, generally 3-4 days, read-out: MIC, CLA Initial
M. fortuitum group = details: Mycolicibacterium fortuitum
M. immunogenum group = system: M. immunogenum group
M. chelonae = details: Mycobacteroides chelonae

CC[C@H]1OC(=O)[C@H](C)[C@@H](O[C@H]2C[C@@](C)(OC)[C@@H](O)[C@H](C)O2)[C@H](C)[C@@H](O[C@@H]2O[C@H](C)C[C@H](N(C)C)[C@H]2O)[C@](C)(OC)C[C@@H](C)C(=O)[C@H](C)[C@@H](O)[C@]1(C)O [clarithromycin]
MIC (M. abscessus complex; isolate 8, Type 1 abscessus): 0.12 µg/mL (≈ 0.16 µM)
MIC (M. abscessus complex; isolate 9, Type 1 abscessus): 2 µg/mL (≈ 2.67 µM)
MIC (M. abscessus complex; isolate 10, Type 1 abscessus): 0.25 µg/mL (≈ 0.334 µM)
MIC (M. abscessus complex; isolate 11, Type 6 abscessus): 0.12 µg/mL (≈ 0.16 µM)
MIC (M. abscessus complex; isolate 12, Type 6 abscessus): 0.25 µg/mL (≈ 0.334 µM)
MIC (M. abscessus complex; isolate 13, Type 6 abscessus): 0.25 µg/mL (≈ 0.334 µM)
MIC (M. abscessus complex; isolate 14, Type 6 abscessus): ≤ 0.06 µg/mL
MIC (M. abscessus complex; isolate 15, Type 7 abscessus): 0.5 µg/mL (≈ 0.668 µM)
MIC (M. abscessus complex; isolate 16, Type 7 abscessus): ≤ 0.06 µg/mL
MIC (M. abscessus complex; isolate 17, Type 8 abscessus): 0.25 µg/mL (≈ 0.334 µM)
MIC (M. fortuitum group; 168 h, isolate 23, M. fortuitum, extended reading (7 d), read-out: MIC, CLA Extended): > 32 µg/mL
MIC (M. fortuitum group; 168 h, isolate 25, M. fortuitum, extended reading (7 d), read-out: MIC, CLA Extended): > 32 µg/mL
MIC (M. fortuitum group; 168 h, isolate 29, M. porcinum/M. boenickei, extended reading (7 d), read-out: MIC, CLA Extended): > 32 µg/mL
MIC (M. fortuitum group; 240 h, isolate 24, M. fortuitum, extended reading (10 d), read-out: MIC, CLA Extended): > 32 µg/mL
MIC (M. fortuitum group; 240 h, isolate 27, M. porcinum, extended reading (10 d), read-out: MIC, CLA Extended): > 32 µg/mL
MIC (M. fortuitum group; 240 h, isolate 28, M. porcinum/M. boenickei, extended reading (10 d), read-out: MIC, CLA Extended): > 32 µg/mL
MIC (M. fortuitum group; 336 h, isolate 26, M. porcinum, extended reading, up to/including 14 days, read-out: MIC, CLA Extended): > 32 µg/mL
MIC (M. fortuitum group; 336 h, isolate 30, M. porcinum/M. boenickei, extended reading, up to/including 14 days, read-out: MIC, CLA Extended): > 32 µg/mL
MIC (M. fortuitum group; 336 h, isolate 31, M. senegalense, extended reading, up to/including 14 days, read-out: MIC, CLA Extended): 0.5 µg/mL (≈ 0.668 µM)
MIC (M. fortuitum group; 336 h, isolate 32, M. senegalense, extended reading, up to/including 14 days, read-out: MIC, CLA Extended): 0.5 µg/mL (≈ 0.668 µM)
MIC (M. fortuitum group; 336 h, isolate 33, M. senegalense, extended reading, up to/including 14 days, read-out: MIC, CLA Extended): 1 µg/mL (≈ 1.34 µM)
MIC (M. fortuitum group; 336 h, isolate 34, M. senegalense, extended reading, up to/including 14 days, read-out: MIC, CLA Extended): 1 µg/mL (≈ 1.34 µM)
MIC (M. fortuitum group; isolate 23, M. fortuitum, initial reading, generally 3-4 days, read-out: MIC, CLA Initial): 1 µg/mL (≈ 1.34 µM)
MIC (M. fortuitum group; isolate 24, M. fortuitum, initial reading, generally 3-4 days, read-out: MIC, CLA Initial): 0.5 µg/mL (≈ 0.668 µM)
MIC (M. fortuitum group; isolate 25, M. fortuitum, initial reading, generally 3-4 days, read-out: MIC, CLA Initial): 2 µg/mL (≈ 2.67 µM)
MIC (M. fortuitum group; isolate 26, M. porcinum, initial reading, generally 3-4 days, read-out: MIC, CLA Initial): 0.5 µg/mL (≈ 0.668 µM)
MIC (M. fortuitum group; isolate 27, M. porcinum, initial reading, generally 3-4 days, read-out: MIC, CLA Initial): 2 µg/mL (≈ 2.67 µM)
MIC (M. fortuitum group; isolate 28, M. porcinum/M. boenickei, initial reading, generally 3-4 days, read-out: MIC, CLA Initial): 8 µg/mL (≈ 10.7 µM)
MIC (M. fortuitum group; isolate 29, M. porcinum/M. boenickei, initial reading, generally 3-4 days, read-out: MIC, CLA Initial): 4 µg/mL (≈ 5.35 µM)
MIC (M. fortuitum group; isolate 30, M. porcinum/M. boenickei, initial reading, generally 3-4 days, read-out: MIC, CLA Initial): 1 µg/mL (≈ 1.34 µM)
MIC (M. fortuitum group; isolate 31, M. senegalense, initial reading, generally 3-4 days, read-out: MIC, CLA Initial): 0.12 µg/mL (≈ 0.16 µM)
MIC (M. fortuitum group; isolate 32, M. senegalense, initial reading, generally 3-4 days, read-out: MIC, CLA Initial): 0.12 µg/mL (≈ 0.16 µM)
MIC (M. fortuitum group; isolate 33, M. senegalense, initial reading, generally 3-4 days, read-out: MIC, CLA Initial): 0.12 µg/mL (≈ 0.16 µM)
MIC (M. fortuitum group; isolate 34, M. senegalense, initial reading, generally 3-4 days, read-out: MIC, CLA Initial): ≤ 0.06 µg/mL
MIC (M. immunogenum group; 336 h, isolate 35, M. immunogenum, extended reading, up to/including 14 days, read-out: MIC, CLA Extended): 1 µg/mL (≈ 1.34 µM)
MIC (M. immunogenum group; 336 h, isolate 36, M. immunogenum, extended reading, up to/including 14 days, read-out: MIC, CLA Extended): 2 µg/mL (≈ 2.67 µM)
MIC (M. immunogenum group; 336 h, isolate 37, M. immunogenum, extended reading, up to/including 14 days, read-out: MIC, CLA Extended): 2 µg/mL (≈ 2.67 µM)
MIC (M. immunogenum group; 336 h, isolate 38, M. immunogenum, extended reading, up to/including 14 days, read-out: MIC, CLA Extended): 2 µg/mL (≈ 2.67 µM)
MIC (M. immunogenum group; isolate 35, M. immunogenum, initial reading, generally 3-4 days, read-out: MIC, CLA Initial): 0.25 µg/mL (≈ 0.334 µM)
MIC (M. immunogenum group; isolate 36, M. immunogenum, initial reading, generally 3-4 days, read-out: MIC, CLA Initial): 0.12 µg/mL (≈ 0.16 µM)
MIC (M. immunogenum group; isolate 37, M. immunogenum, initial reading, generally 3-4 days, read-out: MIC, CLA Initial): 1 µg/mL (≈ 1.34 µM)
MIC (M. immunogenum group; isolate 38, M. immunogenum, initial reading, generally 3-4 days, read-out: MIC, CLA Initial): 0.5 µg/mL (≈ 0.668 µM)
MIC (M. chelonae; 336 h, isolate 18, M. chelonae, extended reading, up to/including 14 days, read-out: MIC, CLA Extended): 2 µg/mL (≈ 2.67 µM)
MIC (M. chelonae; 336 h, isolate 19, M. chelonae, extended reading, up to/including 14 days, read-out: MIC, CLA Extended): 0.5 µg/mL (≈ 0.668 µM)
MIC (M. chelonae; 336 h, isolate 20, M. chelonae, extended reading, up to/including 14 days, read-out: MIC, CLA Extended): 0.5 µg/mL (≈ 0.668 µM)
MIC (M. chelonae; 336 h, isolate 21, M. chelonae, extended reading, up to/including 14 days, read-out: MIC, CLA Extended): 2 µg/mL (≈ 2.67 µM)
MIC (M. chelonae; 336 h, isolate 22, M. chelonae, extended reading, up to/including 14 days, read-out: MIC, CLA Extended): 2 µg/mL (≈ 2.67 µM)
MIC (M. chelonae; isolate 18, M. chelonae, initial reading, generally 3-4 days, read-out: MIC, CLA Initial): 0.25 µg/mL (≈ 0.334 µM)
MIC (M. chelonae; isolate 19, M. chelonae, initial reading, generally 3-4 days, read-out: MIC, CLA Initial): 0.25 µg/mL (≈ 0.334 µM)
MIC (M. chelonae; isolate 20, M. chelonae, initial reading, generally 3-4 days, read-out: MIC, CLA Initial): 0.5 µg/mL (≈ 0.668 µM)
MIC (M. chelonae; isolate 21, M. chelonae, initial reading, generally 3-4 days, read-out: MIC, CLA Initial): 0.5 µg/mL (≈ 0.668 µM)
MIC (M. chelonae; isolate 22, M. chelonae, initial reading, generally 3-4 days, read-out: MIC, CLA Initial): 1 µg/mL (≈ 1.34 µM)
